Measurements published in the kinase profiling compilation of Christmann-Franck et al. (2016).
“And” between values parts separate entries of the source, which are not always exact repeats. Equal entries are not always repeated.

Tests used:
Assay in all cases: Caliper, Mobility shift assay off-chip
CAMK1D (human) = CAMK1D (human) (UniProt Q8IU85)
PRKX (human) = PRKX (human) (UniProt P51817)
CDK9 (human) = CDK9 (human) (UniProt P50750)
CHEK1 (human) = CHEK1 (human) (UniProt O14757)
KDR (human) = KDR (human) (UniProt P35968)
PIM3 (human) = PIM3 (human) (UniProt Q86V86)
LATS2 (human) = LATS2 (human) (UniProt Q9NRM7)
IRAK1 (human) = IRAK1 (human) (UniProt P51617)
NEK4 (human) = NEK4 (human) (UniProt P51957)
MAPKAPK5 (human) = MAPKAPK5 (human) (UniProt Q8IW41)
JAK3 JH1 JH2 (human) = JAK3 JH1 JH2 (human) (UniProt P52333)
NEK1 (human) = NEK1 (human) (UniProt Q96PY6)
IRAK4 (human) = IRAK4 (human) (UniProt Q9NWZ3)
HIPK2 (human) = HIPK2 (human) (UniProt Q9H2X6)
CDK4 (human) = CDK4 (human) (UniProt P11802)
CSNK2A2 (human) = CSNK2A2 (human) (UniProt P19784)
PRKD1 (human) = PRKD1 (human) (UniProt Q15139)
NEK2 (human) = NEK2 (human) (UniProt P51955)
PTK6 (human) = PTK6 (human) (UniProt Q13882)
PRKCQ (human) = PRKCQ (human) (UniProt Q04759)
MKNK1 (human) = MKNK1 (human) (UniProt Q9BUB5)
MET (human) = MET (human) (UniProt P08581)
PLK3 (human) = PLK3 (human) (UniProt Q9H4B4)
FLT4 (human) = FLT4 (human) (UniProt P35916)
TEC (human) = TEC (human) (UniProt P42680)
ROCK1 (human) = ROCK1 (human) (UniProt Q13464)
MERTK (human) = MERTK (human) (UniProt Q12866)
PRKCB1 (human) = PRKCB1 (human) (UniProt P05771)
EPHB4 (human) = EPHB4 (human) (UniProt P54760)
STK24 (human) = STK24 (human) (UniProt Q9Y6E0)
PGK1 (human) = PGK1 (human) (UniProt P00558)
CHEK2 (human) = CHEK2 (human) (UniProt O96017)
GSG2 (human) = GSG2 (human) (UniProt Q8TF76)
MAPK3 (human) = MAPK3 (human) (UniProt P27361)

Chain of PRKCB1 (human) (P05771 whole entry, looked up): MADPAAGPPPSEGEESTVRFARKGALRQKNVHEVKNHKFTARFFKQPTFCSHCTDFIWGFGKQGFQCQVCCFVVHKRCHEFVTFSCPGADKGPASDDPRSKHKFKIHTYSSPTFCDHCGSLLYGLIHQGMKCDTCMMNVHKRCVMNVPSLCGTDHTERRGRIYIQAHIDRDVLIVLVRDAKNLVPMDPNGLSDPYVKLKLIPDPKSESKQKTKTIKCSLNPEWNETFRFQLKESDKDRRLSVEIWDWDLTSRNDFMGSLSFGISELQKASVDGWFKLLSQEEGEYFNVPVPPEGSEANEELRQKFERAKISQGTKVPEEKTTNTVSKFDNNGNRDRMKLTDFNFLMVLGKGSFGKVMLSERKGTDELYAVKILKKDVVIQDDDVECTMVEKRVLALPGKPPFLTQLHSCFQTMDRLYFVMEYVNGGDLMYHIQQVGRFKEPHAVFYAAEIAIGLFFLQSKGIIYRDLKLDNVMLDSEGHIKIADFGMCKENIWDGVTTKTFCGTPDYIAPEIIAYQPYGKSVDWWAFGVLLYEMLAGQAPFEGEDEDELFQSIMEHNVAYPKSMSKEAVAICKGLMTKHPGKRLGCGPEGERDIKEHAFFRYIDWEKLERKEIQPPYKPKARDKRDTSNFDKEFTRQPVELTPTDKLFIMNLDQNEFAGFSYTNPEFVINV
Chain of PTK6 (human) (Q13882 whole entry, looked up): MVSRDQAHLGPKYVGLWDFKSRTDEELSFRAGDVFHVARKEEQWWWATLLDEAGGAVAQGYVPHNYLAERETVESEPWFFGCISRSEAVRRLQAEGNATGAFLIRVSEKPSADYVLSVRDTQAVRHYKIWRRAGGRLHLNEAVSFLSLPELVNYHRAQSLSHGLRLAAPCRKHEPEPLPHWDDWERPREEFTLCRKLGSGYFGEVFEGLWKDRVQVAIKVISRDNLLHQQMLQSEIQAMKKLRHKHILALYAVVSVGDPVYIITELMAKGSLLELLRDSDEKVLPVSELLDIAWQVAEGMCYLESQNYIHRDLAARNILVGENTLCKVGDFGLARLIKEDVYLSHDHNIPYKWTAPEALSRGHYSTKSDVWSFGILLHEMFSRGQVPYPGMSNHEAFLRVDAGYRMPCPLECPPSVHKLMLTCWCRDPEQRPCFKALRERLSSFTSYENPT
Chain of CDK9 (human) (P50750 whole entry, looked up): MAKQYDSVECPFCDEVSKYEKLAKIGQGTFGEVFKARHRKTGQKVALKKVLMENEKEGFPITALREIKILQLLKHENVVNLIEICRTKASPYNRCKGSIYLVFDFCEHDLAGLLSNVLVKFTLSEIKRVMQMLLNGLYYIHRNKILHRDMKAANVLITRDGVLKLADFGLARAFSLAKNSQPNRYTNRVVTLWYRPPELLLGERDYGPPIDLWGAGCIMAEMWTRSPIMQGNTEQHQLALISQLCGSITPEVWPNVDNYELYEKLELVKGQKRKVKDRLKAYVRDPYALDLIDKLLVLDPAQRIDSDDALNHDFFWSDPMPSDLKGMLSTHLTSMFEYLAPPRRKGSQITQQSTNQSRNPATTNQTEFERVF
Chain of TEC (human) (P42680 whole entry, looked up): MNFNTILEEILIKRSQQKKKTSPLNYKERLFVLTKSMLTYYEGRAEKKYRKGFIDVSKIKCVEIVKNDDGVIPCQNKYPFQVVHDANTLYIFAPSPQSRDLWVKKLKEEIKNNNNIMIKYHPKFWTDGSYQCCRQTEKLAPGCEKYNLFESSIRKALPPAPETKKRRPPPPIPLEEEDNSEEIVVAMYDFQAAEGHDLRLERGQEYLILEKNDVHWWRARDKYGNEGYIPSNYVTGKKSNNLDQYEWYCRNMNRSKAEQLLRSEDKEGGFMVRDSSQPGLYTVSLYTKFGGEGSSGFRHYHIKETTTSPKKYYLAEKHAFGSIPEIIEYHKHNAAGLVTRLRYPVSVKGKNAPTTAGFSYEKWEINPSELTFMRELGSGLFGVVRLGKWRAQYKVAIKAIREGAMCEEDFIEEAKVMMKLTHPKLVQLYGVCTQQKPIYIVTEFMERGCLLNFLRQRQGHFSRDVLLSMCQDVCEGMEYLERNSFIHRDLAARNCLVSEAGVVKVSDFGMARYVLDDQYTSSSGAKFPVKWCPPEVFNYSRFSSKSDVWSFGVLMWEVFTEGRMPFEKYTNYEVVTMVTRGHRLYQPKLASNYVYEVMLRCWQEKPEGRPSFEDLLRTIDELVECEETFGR
Chain of PRKD1 (human) (Q15139 whole entry, looked up): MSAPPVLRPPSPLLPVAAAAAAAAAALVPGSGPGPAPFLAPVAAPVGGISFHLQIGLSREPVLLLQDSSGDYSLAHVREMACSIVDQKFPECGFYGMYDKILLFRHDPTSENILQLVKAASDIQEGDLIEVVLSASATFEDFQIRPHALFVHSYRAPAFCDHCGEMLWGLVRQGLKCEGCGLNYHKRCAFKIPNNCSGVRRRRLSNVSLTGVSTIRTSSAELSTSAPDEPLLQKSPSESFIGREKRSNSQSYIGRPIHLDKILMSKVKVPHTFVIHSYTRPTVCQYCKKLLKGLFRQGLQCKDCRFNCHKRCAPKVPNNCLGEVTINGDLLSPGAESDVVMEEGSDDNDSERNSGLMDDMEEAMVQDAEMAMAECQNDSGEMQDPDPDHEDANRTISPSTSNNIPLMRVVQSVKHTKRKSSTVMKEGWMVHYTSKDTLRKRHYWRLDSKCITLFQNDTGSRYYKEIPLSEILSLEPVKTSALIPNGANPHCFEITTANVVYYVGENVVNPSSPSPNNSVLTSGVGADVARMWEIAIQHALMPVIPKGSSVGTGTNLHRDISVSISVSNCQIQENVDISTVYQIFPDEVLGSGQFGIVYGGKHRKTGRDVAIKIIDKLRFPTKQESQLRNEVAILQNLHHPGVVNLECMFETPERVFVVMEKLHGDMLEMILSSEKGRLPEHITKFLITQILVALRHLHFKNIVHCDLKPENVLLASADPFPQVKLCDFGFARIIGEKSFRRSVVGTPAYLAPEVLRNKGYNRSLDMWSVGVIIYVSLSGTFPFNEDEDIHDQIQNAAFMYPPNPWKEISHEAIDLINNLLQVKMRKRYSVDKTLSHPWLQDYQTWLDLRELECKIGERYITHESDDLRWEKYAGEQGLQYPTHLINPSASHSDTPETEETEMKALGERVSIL
Chain of PRKX (human) (P51817 whole entry, looked up): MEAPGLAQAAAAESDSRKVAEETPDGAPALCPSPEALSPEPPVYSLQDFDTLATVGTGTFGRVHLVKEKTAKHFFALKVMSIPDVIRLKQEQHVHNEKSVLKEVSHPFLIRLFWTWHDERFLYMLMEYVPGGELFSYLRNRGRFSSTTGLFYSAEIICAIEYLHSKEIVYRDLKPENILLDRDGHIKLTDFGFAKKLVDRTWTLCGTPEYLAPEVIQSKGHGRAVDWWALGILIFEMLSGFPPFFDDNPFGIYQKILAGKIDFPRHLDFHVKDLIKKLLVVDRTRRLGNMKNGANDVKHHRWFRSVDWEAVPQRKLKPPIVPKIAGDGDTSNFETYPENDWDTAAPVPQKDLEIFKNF
Chain of KDR (human) (P35968 whole entry, looked up): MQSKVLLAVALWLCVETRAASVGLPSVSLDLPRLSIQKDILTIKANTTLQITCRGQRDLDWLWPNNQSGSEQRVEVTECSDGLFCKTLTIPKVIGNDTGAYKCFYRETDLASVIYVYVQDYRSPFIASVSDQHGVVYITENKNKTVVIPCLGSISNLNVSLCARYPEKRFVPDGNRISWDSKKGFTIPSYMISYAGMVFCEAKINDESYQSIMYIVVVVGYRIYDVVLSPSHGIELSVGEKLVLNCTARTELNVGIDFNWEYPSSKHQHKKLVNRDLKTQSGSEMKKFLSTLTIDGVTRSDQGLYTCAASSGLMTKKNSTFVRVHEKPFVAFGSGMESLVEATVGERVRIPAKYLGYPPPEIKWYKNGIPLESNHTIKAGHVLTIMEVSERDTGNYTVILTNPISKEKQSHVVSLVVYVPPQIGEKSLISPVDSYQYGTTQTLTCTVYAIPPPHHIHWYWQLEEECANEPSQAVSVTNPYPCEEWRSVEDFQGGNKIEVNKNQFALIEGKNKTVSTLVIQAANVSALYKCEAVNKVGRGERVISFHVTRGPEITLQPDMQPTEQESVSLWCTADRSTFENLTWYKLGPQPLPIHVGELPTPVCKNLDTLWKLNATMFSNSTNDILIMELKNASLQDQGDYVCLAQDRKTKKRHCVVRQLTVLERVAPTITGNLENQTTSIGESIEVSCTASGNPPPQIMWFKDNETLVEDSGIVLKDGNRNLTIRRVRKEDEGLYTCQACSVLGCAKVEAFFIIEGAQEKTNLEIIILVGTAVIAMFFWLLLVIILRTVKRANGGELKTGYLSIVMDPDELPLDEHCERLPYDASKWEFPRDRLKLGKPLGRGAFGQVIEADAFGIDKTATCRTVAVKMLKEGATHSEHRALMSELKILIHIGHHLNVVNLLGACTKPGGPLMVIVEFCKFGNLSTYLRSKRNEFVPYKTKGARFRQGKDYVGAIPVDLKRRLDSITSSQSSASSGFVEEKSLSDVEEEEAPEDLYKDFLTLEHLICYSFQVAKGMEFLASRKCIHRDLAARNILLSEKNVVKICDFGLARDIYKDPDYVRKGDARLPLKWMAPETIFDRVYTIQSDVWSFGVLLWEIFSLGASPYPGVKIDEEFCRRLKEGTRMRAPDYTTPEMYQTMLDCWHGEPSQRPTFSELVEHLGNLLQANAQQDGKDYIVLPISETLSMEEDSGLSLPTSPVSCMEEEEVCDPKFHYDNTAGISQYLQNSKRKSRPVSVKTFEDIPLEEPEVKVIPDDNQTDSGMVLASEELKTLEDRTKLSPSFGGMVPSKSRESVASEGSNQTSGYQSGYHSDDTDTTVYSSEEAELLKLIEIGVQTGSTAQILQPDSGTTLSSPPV

COc1cc2c(Oc3ccc4[nH]c(C)cc4c3F)ncnc2cc1OCCCN1CCCC1
inhibition (CAMK1D (human); compound 0.02 µM): 0.3% | inhibition (CAMK1D (human); compound 0.2 µM): -0.6% | inhibition (PRKX (human); compound 0.02 µM): 1.7% | inhibition (PRKX (human); compound 0.2 µM): -0.9% | inhibition (CDK9 (human); compound 0.02 µM): -3.2% | inhibition (CDK9 (human); compound 0.2 µM): -3.3% | inhibition (CHEK1 (human); compound 0.02 µM): -6.2% | inhibition (CHEK1 (human); compound 0.2 µM): -0.1% | inhibition (KDR (human); compound 0.02 µM): 96.3% | inhibition (KDR (human); compound 0.2 µM): 101% | inhibition (PIM3 (human); compound 0.02 µM): -1.8% | inhibition (PIM3 (human); compound 0.2 µM): -6.2% | inhibition (LATS2 (human); compound 0.02 µM): -7.6% | inhibition (LATS2 (human); compound 0.2 µM): -0.9% | inhibition (IRAK1 (human); compound 0.02 µM): -19.1% | inhibition (IRAK1 (human); compound 0.2 µM): -7.5% | inhibition (NEK4 (human); compound 0.02 µM): -3.8% | inhibition (NEK4 (human); compound 0.2 µM): -3.9% | inhibition (MAPKAPK5 (human); compound 0.02 µM): 2% | inhibition (MAPKAPK5 (human); compound 0.2 µM): 0.1% | inhibition (JAK3 JH1 JH2 (human); compound 0.02 µM): 5.1% | inhibition (JAK3 JH1 JH2 (human); compound 0.2 µM): 4% | inhibition (NEK1 (human); compound 0.02 µM): -5% | inhibition (NEK1 (human); compound 0.2 µM): -4.5% | inhibition (IRAK4 (human); compound 0.02 µM): -5.6% | inhibition (IRAK4 (human); compound 0.2 µM): -5.6% | inhibition (HIPK2 (human); compound 0.02 µM): -1.7% | inhibition (HIPK2 (human); compound 0.2 µM): 0.7% | inhibition (CDK4 (human); compound 0.02 µM): 2.7% | inhibition (CDK4 (human); compound 0.2 µM): 7.2% | inhibition (CSNK2A2 (human); compound 0.02 µM): -0.7% | inhibition (CSNK2A2 (human); compound 0.2 µM): -1.2% | inhibition (PRKD1 (human); compound 0.02 µM): -1.3% | inhibition (PRKD1 (human); compound 0.2 µM): -2.2% | inhibition (NEK2 (human); compound 0.02 µM): 6.3% | inhibition (NEK2 (human); compound 0.2 µM): 5.3% | Ki (PTK6 (human)): 11.8 nM | inhibition (PTK6 (human); compound 0.02 µM): 44.1% | inhibition (PTK6 (human); compound 0.2 µM): 92.1% | inhibition (PRKCQ (human); compound 0.02 µM): 8.9% | inhibition (PRKCQ (human); compound 0.2 µM): 3.7% | inhibition (MKNK1 (human); compound 0.02 µM): -2.9% | inhibition (MKNK1 (human); compound 0.2 µM): 2.6% | inhibition (MET (human); compound 0.02 µM): 1% | inhibition (MET (human); compound 0.2 µM): 6% | inhibition (PLK3 (human); compound 0.02 µM): 6% | inhibition (PLK3 (human); compound 0.2 µM): 7.9% | inhibition (FLT4 (human); compound 0.02 µM): 73.8% | inhibition (FLT4 (human); compound 0.2 µM): 97% | inhibition (TEC (human); compound 0.02 µM): 4.5% | inhibition (TEC (human); compound 0.2 µM): 5.3% | inhibition (ROCK1 (human); compound 0.02 µM): -1.3% | inhibition (ROCK1 (human); compound 0.2 µM): -1.3% | inhibition (MERTK (human); compound 0.02 µM): 3.6% | inhibition (MERTK (human); compound 0.2 µM): 5.9% | inhibition (PRKCB1 (human); compound 0.02 µM): 5.1% and 8.3% | inhibition (PRKCB1 (human); compound 0.2 µM): 7.3% and 7.5% | inhibition (EPHB4 (human); compound 0.02 µM): -0.5% | inhibition (EPHB4 (human); compound 0.2 µM): 23.3% | inhibition (STK24 (human); compound 0.02 µM): 2% | inhibition (STK24 (human); compound 0.2 µM): 12.8% | inhibition (PGK1 (human); compound 0.02 µM): -1.4% | inhibition (PGK1 (human); compound 0.2 µM): -6.5% | inhibition (CHEK2 (human); compound 0.02 µM): -1.2% | inhibition (CHEK2 (human); compound 0.2 µM): 3.6% | inhibition (GSG2 (human); compound 0.02 µM): 0.4% | inhibition (GSG2 (human); compound 0.2 µM): -0.4% | inhibition (MAPK3 (human); compound 0.02 µM): -1.5% | inhibition (MAPK3 (human); compound 0.2 µM): -5%
